Results published in patent publication US20220313717A1, “METHODS OF TREATING CRYPTOCOCCUS INFECTIONS” (MATINAS BIOPHARMA NANOTECHNOLOGIES, INC., priority 2019, published 2022).

How the values were obtained:
[1] = tested on: Cryptococcus spp.; conditions: cited from earlier work
[2] = target: CYP3A4 (Homo sapiens, UniProt P08684); conditions: cited from earlier work
[3] = target: CYP2C9 (Homo sapiens, UniProt P11712); conditions: cited from earlier work
[4] = Participant subjective impressions of cAMB versus prior IV AMB (qualitative scale, visual analog); design: species or system human; conditions: recall of prior IV therapy (6/24)
Protocol: Trial endpoints included: 1) Proportion of daily dose received and tolerated without vomiting within 30 minutes; 2) Cumulative score of nausea, vomiting, diarrhea by Common Terminology Criteria AE (CTCAE) grade scoring criteria (U.S. Department of Health and Human Services NIoH, National Cancer Institute, 2017, Common Terminology Criteria for Adverse Events (CTCAE) v 5.0); 3) Incidence of adverse events (AEs) by National Institute of Allergy and Infectious Diseases (NIAID) Division of AIDS (DAIDS) toxicity scale (version 2017) for Grade 1-5 or serious AEs (SAE) (U.S. Department of Health and Human Services NIoH, National Institute of Allergy and Infectious Diseases, Division of AIDS, 2017, Division of AIDS (DAIDS) Table for Grading the Severity of Adult and Pediatric Adverse Events, Corrected Version 2.1.); 4) Participant subjective impression(s) of cAMB by visual analog and other scales. All clinical and laboratory AEs were followed up until resolution.
Statistical analyses were primarily descriptive. The median and interquartile ranges or the number and proportions were reported where appropriate. Area under the curve (AUC) calculations were made using a linear trapezoidal method with statistical comparison by ANOVA. […]
Using a qualitative scale, we assessed participant impressions of their cAMB experience versus their prior IV AMB experience in the Phase 1A cohort.

[5] = tested on: Cryptococcus spp.; conditions: in vivo, cited from earlier work

CYP3A4, sequence (P08684 whole entry): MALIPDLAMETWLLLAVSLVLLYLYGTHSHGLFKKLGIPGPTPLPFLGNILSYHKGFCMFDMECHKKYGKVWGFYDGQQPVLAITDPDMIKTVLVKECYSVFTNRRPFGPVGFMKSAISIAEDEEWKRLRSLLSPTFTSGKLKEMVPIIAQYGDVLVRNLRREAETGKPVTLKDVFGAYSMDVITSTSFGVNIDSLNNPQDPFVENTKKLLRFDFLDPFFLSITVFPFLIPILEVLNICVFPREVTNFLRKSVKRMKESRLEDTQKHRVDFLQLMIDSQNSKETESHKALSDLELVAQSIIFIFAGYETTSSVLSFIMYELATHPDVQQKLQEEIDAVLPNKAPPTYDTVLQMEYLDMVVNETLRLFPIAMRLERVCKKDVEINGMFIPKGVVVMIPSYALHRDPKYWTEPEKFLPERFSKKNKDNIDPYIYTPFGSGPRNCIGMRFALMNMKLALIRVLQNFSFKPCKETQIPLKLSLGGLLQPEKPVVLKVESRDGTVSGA
CYP2C9, sequence (P11712 whole entry): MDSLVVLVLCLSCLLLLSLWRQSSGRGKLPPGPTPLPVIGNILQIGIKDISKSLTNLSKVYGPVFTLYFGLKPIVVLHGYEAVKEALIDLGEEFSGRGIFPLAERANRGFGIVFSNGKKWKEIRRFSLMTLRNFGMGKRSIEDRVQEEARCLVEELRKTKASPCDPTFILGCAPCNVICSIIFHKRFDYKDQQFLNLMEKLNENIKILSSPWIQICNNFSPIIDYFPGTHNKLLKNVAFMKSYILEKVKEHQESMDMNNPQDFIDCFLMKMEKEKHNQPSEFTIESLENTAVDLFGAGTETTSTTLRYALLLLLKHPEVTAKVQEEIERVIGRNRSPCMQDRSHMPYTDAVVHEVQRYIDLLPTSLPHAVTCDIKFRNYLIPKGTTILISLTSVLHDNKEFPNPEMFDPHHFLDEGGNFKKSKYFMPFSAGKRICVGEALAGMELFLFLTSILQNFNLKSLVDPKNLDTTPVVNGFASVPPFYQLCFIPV

## Nc1ncccc1-c1cc(Cc2ccc(COc3ccccn3)cc2)no1 [E1210]
[1]
  in vitro activity against Cryptococcus spp.: has in vitro activity against Cryptococcus spp.

## OC(Cn1cncn1)(Cn1cncn1)c1ccc(F)cc1F [Fluconazole, fluconazole]
[2]
  CYP3A4 inhibition: moderate CYP3A4 inhibitor
[3]
  CYP2C9 inhibition: potent CYP2C9 inhibitor

## C[C@@H]1[C@H](O)[C@@H](C)/C=C/C=C/C=C/C=C/C=C/C=C/C=C/[C@H](O[C@@H]2O[C@H](C)[C@@H](O)[C@H](N)[C@@H]2O)C[C@@H]2O[C@](O)(C[C@@H](O)C[C@@H](O)[C@H](O)CC[C@@H](O)C[C@@H](O)CC(=O)O[C@H]1C)C[C@H](O)[C@H]2C(=O)O [IV AMB, amphotericin B]
[4]
  participants who recalled severe nausea: 25%

## OC(Cn1cnnn1)(c1ccc(F)cc1F)C(F)(F)c1ccc(-c2ccc(OCC(F)(F)F)cc2)cn1 (stereo not drawn) [VT-1129]
[5]
  fungicidal activity in mouse models of Cryptococcus spp. infection: fungicidal
[5]; mouse
  CNS penetration: good CNS penetration
